{"source": "patent US20020098148A1", "about": "“NON-STEROIDAL RADIOLABELED AGONIST/ANTAGONIST COMPOUNDS AND THEIR USE IN PROSTATE CANCER IMAGING” (priority 1997, published 2002)", "key": {"[1]": {"conditions": "Cockshott et al. 1991; cited from earlier work"}, "androgen receptor (AR)": {"molecular_target": "T1, androgen receptor (AR) (Rattus norvegicus, UniProt P15207)", "T1 construct": "The minimum concentration of ^3H-MIB to saturate AR sites in the cytosol preparation was 1 nM; from tissue; host or cells: cytosol", "T1 sequence (P15207 1-902)": "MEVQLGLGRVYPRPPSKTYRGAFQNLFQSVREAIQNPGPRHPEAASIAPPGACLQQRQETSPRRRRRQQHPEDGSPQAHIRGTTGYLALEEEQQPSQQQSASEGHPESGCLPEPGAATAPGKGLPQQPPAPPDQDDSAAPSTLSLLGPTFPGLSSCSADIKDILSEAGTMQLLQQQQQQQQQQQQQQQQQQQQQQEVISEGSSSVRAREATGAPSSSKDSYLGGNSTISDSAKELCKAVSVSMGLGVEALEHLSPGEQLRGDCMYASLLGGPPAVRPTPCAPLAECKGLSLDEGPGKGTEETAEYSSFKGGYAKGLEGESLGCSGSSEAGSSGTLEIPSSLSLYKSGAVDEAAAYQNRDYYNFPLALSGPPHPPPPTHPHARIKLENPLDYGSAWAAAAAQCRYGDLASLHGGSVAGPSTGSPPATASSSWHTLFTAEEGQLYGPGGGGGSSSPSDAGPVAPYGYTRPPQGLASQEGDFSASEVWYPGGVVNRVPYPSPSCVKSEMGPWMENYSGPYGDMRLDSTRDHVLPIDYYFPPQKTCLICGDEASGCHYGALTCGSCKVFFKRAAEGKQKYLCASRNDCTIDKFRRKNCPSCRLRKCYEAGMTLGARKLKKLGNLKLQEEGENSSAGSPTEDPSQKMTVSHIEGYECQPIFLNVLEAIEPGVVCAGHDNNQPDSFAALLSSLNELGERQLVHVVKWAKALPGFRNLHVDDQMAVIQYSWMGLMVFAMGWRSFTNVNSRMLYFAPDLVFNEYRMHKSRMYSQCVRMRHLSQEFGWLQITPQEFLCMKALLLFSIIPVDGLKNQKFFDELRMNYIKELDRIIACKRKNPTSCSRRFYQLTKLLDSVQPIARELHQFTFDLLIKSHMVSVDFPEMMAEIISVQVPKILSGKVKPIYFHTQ", "experiment": "AR competitive binding with 3H-mibolerone in cytosol", "method": "For the determination of non-specific binding, separate experiments were conducted by adding 1,000 nM MIB to the incubate. Unless otherwise indicated, all experiments were repeated three times or more. […] Radioactivity was counted in a liquid scintillation counter (Model LS6800, Beckman Instruments Inc., Palo Alto, Calif.).\nTo determine the Kd of MIB, data were analyzed using a modified form of the Scatchard equation:\nwhere B was the concentration of specifically-bound ^3H-MIB in the incubate, F was the concentration of free ^3H-MIB in the incubate, and Bmax was the maximum concentration of ^3H-MIB specifically bound to AR, which is also the concentration of available AR binding sites in the incubate. […]\nFor competition binding experiments, competitive displacement curves were constructed for each ligand with percent specific binding (specific binding of ^3H-MIB at a particular ligand concentration expressed as a percentage of the specific binding of ^3H-MIB in the absence of ligand) on the vertical axis and ligand concentration on the horizontal axis. […]\nwhere B0 is the specific binding of ^3H-MIB in the absence of ligand, and C is the ligand concentration. Binding affinities of the ligands were then compared using the equilibrium dissociation constant (Ki) of each ligand, as calculated using the equation below: […]"}}, "data": [{"smiles": "CC(O)(CS(=O)(=O)c1ccc(F)cc1)C(=O)Nc1ccc(C#N)c(C(F)(F)F)c1", "note": "(racemic) [racemic ^14C-labeled bicalutamide, bicalutamide]", "values": [{"measurement": "share of radioactivity in plasma accounted for by parent compound", "setting": "[1]", "value": "virtually all of the radioactivity in plasma"}]}, {"smiles": "C[C@](O)(CS(=O)(=O)c1ccc(I)cc1)C(=O)Nc1ccc(C#N)c(C(F)(F)F)c1", "note": "[Compound 2]", "values": [{"measurement": "Ki", "setting": "androgen receptor (AR)", "value": 3.1, "unit": "nM"}, {"measurement": "Ki value lower than that of R-Bicalutamide", "setting": "androgen receptor (AR); R-isomer", "value": 73, "unit": "%"}]}]}
